Assay results published in patent US5288709A, “Erythromycin derivatives” (priority 1991, dated 1994).
≈ marks a conversion by molar mass, not a printed value. Like-named read-outs stand apart in the source and are kept apart here.

Assays:
[1] = tested on: Staphylococcus aureus CMX 503A; test: In-vitro antimicrobial activity primary screen (agar dilution MIC); format: cell-based; settings: Staphylococcus aureus, CMX503A, 24 h, BHI agar, 20-24 h, read-out: MIC
Procedure, shortened: (§1)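 MIC is read as the lowest compound level yielding no growth, slight haze or sparse colonies on the inoculum spot, relative to a drug-free plate. Strains were replicator-inoculated (1:100 dilution) onto BHI agar plates holding twelve dilutions and held at 35-37 °C for 20-24 h, with erythromycin A as comparator.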

[2] = tested on: Staphylococcus aureus CMX 553; test: as above; format: cell-based; settings: Staphylococcus aureus, CMX553, 24 h, BHI agar, 20-24 h, read-out: MIC
Procedure, shortened: as §1

[3] = tested on: Staphylococcus aureus CMX 686B; test: as above; format: cell-based; settings: CMX686B, BHI agar, 20-24 h, read-out: MIC
Procedure, shortened: as §1

Escherichia coli DC-2 = test: as above; format: cell-based; settings: Escherichia coli DC-2, BHI agar, 20-24 h
Procedure, shortened: (§2)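 Plates: BHI agar + serial aqueous compound dilutions (12). Inoculum: 1:100; 1:10 for Streptococcus/slow growers. Incubation: 35-37° C, 20-24 h. Readout: lowest concentration without growth beyond faint haze or scattered colonies.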

[4] = tested on: Pseudomonas aeruginosa K799/61; test: as above; format: cell-based; settings: Pseudomonas aeruginosa, K799/61, 24 h, Pseudomonas aeruginosa K799/61; BHI agar, 20-24 h
Procedure, shortened: as §2

[5] = tested on: Enterococcus faecium ATCC 8043; test: as above; format: cell-based
Procedure, shortened: as §2

Acinetobacter SP CMX 669 = test: as above; format: cell-based; settings: Acinetobacter, SPCMX669, 24 h, Acinetobacter SP CMX 669; BHI agar, 20-24 h
Procedure, shortened: as §2

[6] = tested on: Pseudomonas aeruginosa A5007; test: as above; format: cell-based
Procedure, shortened: as §2

[7] = tested on: Streptococcus bovis A5169; test: as above; format: cell-based; settings: Streptococcus equinus, BHI agar, 20-24 h, read-out: MIC
Procedure, shortened: as §2

Escherichia coli H560 = test: as above; format: cell-based; settings: Escherichia coli H560, BHI agar, 20-24 h
Procedure, shortened: as §2

[8] = tested on: Staphylococcus epidermidis 3519; test: as above; format: cell-based; settings: BHI agar, 20-24 h, read-out: MIC
Procedure, shortened: as §2

[9] = tested on: Streptococcus pyrogenes 2548 INDUC; test: as above; format: cell-based; settings: BHI agar, 20-24 h, read-out: MIC
Procedure, shortened: as §2

[10] = tested on: Staphylococcus aureus 45 RAR2; test: as above; format: cell-based; settings: Staphylococcus aureus, 45RAR2, 24 h, BHI agar, 20-24 h
Procedure, shortened: as §2

[11] = tested on: Klebsiella pneumoniae ATCC 8045; test: as above; format: cell-based; settings: ATCC8045; Klebsiella pneumoniae ATCC 8045; BHI agar, 20-24 h; read-out: MIC
Procedure, shortened: as §2

[12] = tested on: Enterobacter aerogenes ATCC 13048; test: as above; format: cell-based; settings: Klebsiella aerogenes
Procedure, shortened: as §2

Escherichia coli SS = test: as above; format: cell-based; settings: Escherichia coli, 24 h, BHI agar, 20-24 h
Procedure, shortened: as §2

[13] = tested on: Staphylococcus aureus ATCC 6538P; test: as above; format: cell-based; settings: Staphylococcus aureus, ATCC6538P, 24 h, BHI agar, 20-24 h
Procedure, shortened: as §2

[14] = tested on: Streptococcus pyrogenes EES61; test: as above; format: cell-based; settings: BHI agar, 20-24 h
Procedure, shortened: as §2

[15] = tested on: Micrococcus luteus ATCC 4698; test: as above; format: cell-based; settings: 20-24 h
Procedure, shortened: as §2

Escherichia coli JUHL = test: as above; format: cell-based; settings: Escherichia coli JUHL, BHI agar, 20-24 h
Procedure, shortened: as §2

[16] = tested on: Providencia stuartii CMX 640; test: as above; format: cell-based
Procedure, shortened: as §2

[17] = tested on: Streptococcus agalactiae CMX 508; test: as above; format: cell-based; settings: 20-24 h
Procedure, shortened: as §2

[18] = tested on: Pseudomonas aeruginosa K799/WT; test: as above; format: cell-based
Procedure, shortened: as §2

[19] = tested on: Streptococcus pyogenes C-203; test: In-vivo acute mouse protection assay; set-up: species or system Streptococcus pyogenes; female Swiss albino mice; settings: dosed 1 and 5 h post-infection, observed 7 days
Procedure: An acute mouse protection test was conducted on ten mice with each of three concentrations of selected compounds of the invention. Each concentration was a four-fold dilution of the previous concentration. The initial concentration will vary with the microorganism with which the mouse is challenged.
The acute mouse protection test was conducted on female, Swiss albino mice, 18-20 grams in weight. […] To check the potency of the inoculum, a titration of the indicated test organism was carried out in control animals. The titration determines the LD50 for a particular microorganism. The treatment groups of animals were dosed orally, by gavage, or subcutaneously with the test compounds at 1 and 5 hours post-infection and observed for 7 days. The ED50 were calculated using the mortality data collected.

[20] = Pharmacokinetic evaluation in dogs after a 10 mg/kg dose; settings: dog, plasma; for half-life: t1/2 (biological half life); for bioavailability: % ABS (percent absorbance), from AUC (absolute bioavailability); for Cmax: Cmax (maximum concentration in blood); for Tmax: Tmax (time to achieve maximum concentration in blood)
[21] = iv, IV 10 mg/kg, HPLC (parent drug)
[22] = iv, IV 10 mg/kg, microbiological assay
[23] = po, oral 10 mg/kg, HPLC (parent drug)
[24] = po, oral 10 mg/kg, microbiological assay

| Structure (SMILES) | MIC [1] [µg/mL] | MIC [2] [µg/mL] | MIC [3] [µg/mL] | MIC [4] [µg/mL] | MIC [7] [µg/mL] | MIC [8] [µg/mL] | MIC [9] [µg/mL] | MIC [10] [µg/mL] | MIC (Escherichia coli SS) [µg/mL] | MIC [13] [µg/mL] | ED50 ([19]; C203, 168 h, oral) [mg/kg] | ED50 ([19]; C203, sc, 168 h, subcutaneous) [mg/kg] | half-life [20, 21] [h] | half-life [20, 22] [h] | bioavailability [20, 23] [%] | bioavailability [20, 24] [%] | Cmax [20, 23] [ng/mL] | Cmax [20, 24] [ng/mL] | Tmax [20, 23] [h] | half-life [20, 23] [h] | further results |
| --- | --- | --- | --- | --- | --- | --- | --- | --- | --- | --- | --- | --- | --- | --- | --- | --- | --- | --- | --- | --- | --- |
| CC[C@H]1OC(=O)[C@H](C)[C@@H](O[C@H]2C[C@@](C)(OC)[C@@H](O)[C@H](C)O2)[C@H](C)[C@@H](O[C@@H]2O[C@H](C)C[C@H](N(C)C)[C@H]2O)[C@](C)(O)C[C@@H](C)[C@@H]2O[C@@]1(C)C(=O)[C@H]2C [Example 5, (9S)-9-Deoxo-11,12-dideoxy-9,12-epoxy-11-oxoerythromycin A] | 0.2 (≈ 0.279 µM) | 0.1 (≈ 0.14 µM) | 0.39 (≈ 0.545 µM) | 1.56 (≈ 2.18 µM) | 0.1 (≈ 0.14 µM) | 0.2 (≈ 0.279 µM) | 1.56 (≈ 2.18 µM) | 0.2 (≈ 0.279 µM) | 0.2 (≈ 0.279 µM) | 0.39 (≈ 0.545 µM) | 3.9 | 1.7 | 12.2 | 14.7 | 81 | 76 | 2500 | 2500 | 4 | 10.2 | MIC (Escherichia coli DC-2; DC2, read-out: MIC): > 100 µg/mL; MIC ([5]; Enterococcus faecium, ATCC8043, 24 h): 0.1 µg/mL (≈ 0.14 µM); MIC (Acinetobacter SP CMX 669): 12.5 µg/mL (≈ 17.5 µM); MIC ([6]; Pseudomonas aeruginosa A5007, BHI agar, 20-24 h, read-out: MIC): > 100 µg/mL; MIC (Escherichia coli H560; read-out: MIC): 100 µg/mL (≈ 140 µM); MIC [11]: > 100 µg/mL; MIC ([12]; ATCC13048, Enterobacter aerogenes ATCC 13048, BHI agar, 20-24 h, read-out: MIC): > 100 µg/mL; MIC ([14]; Streptococcus, EES61, 24 h): < 0.05 µg/mL; MIC ([15]; Micrococcus luteus, ATCC4698, 24 h, BHI agar): 0.1 µg/mL (≈ 0.14 µM); MIC (Escherichia coli JUHL; read-out: MIC): 100 µg/mL (≈ 140 µM); MIC ([16]; CMX640, Providencia stuartii CMX 640, BHI agar, 20-24 h, read-out: MIC): > 100 µg/mL; MIC ([17]; Streptococcus agalactiae, CMX508, 24 h, BHI agar): 0.1 µg/mL (≈ 0.14 µM); MIC ([18]; Pseudomonas aeruginosa K799/WT, BHI agar, 20-24 h, read-out: MIC): 100 µg/mL (≈ 140 µM); half-life [20, 24]: 10.5 h |
| CC[C@H]1OC(=O)[C@H](C)[C@@H](O[C@H]2C[C@@](C)(OC)[C@H](N)[C@H](C)O2)[C@H](C)[C@@H](O[C@@H]2O[C@H](C)C[C@H](N(C)C)[C@H]2O)[C@](C)(O)C[C@@H](C)[C@@H]2O[C@@]1(C)[C@@H](O)[C@H]2C [Example 13, (4"R,9S,11S) 4"-Amino-9-deoxo-4",12-dideoxy-9,12-epoxyerythromycin A] | 0.2 (≈ 0.279 µM) | 0.2 (≈ 0.279 µM) | 0.2 (≈ 0.279 µM) | 1.56 (≈ 2.18 µM) | 0.01 (≈ 0.0139 µM) | 0.2 (≈ 0.279 µM) | 0.78 (≈ 1.09 µM) | 0.2 (≈ 0.279 µM) | 0.2 (≈ 0.279 µM) | 0.2 (≈ 0.279 µM) | 51.5 | 9.3 | 9.9 | 18.3 | 68 | 58 | 1600 | 1700 | 0.4 | 9.6 | MIC (Escherichia coli DC-2; Escherichia coli, DC2, 24 h): 50 µg/mL (≈ 69.7 µM); MIC ([5]; ATCC8043, Enterococcus faecium ATCC 8043, BHI agar, 20-24 h, read-out: MIC): 0.05 µg/mL (≈ 0.0697 µM); MIC ([6]; Pseudomonas aeruginosa, A5007, 24 h): > 100 µg/mL; MIC (Escherichia coli H560; Escherichia coli, H560, 24 h): 12.5 µg/mL (≈ 17.4 µM); MIC ([12]; ATCC13048, 24 h): 100 µg/mL (≈ 139 µM); MIC ([14]; read-out: MIC): < 0.005 µg/mL; MIC ([15]; ATCC4698, BHI agar, read-out: MIC): 0.05 µg/mL (≈ 0.0697 µM); MIC (Escherichia coli JUHL; Escherichia coli, 24 h): 50 µg/mL (≈ 69.7 µM); MIC ([16]; Providencia stuartii, CMX640, 24 h): > 100 µg/mL; MIC ([17]; CMX508, BHI agar, read-out: MIC): 0.02 µg/mL (≈ 0.0279 µM); MIC ([18]; Pseudomonas aeruginosa, K799/WT, 24 h): 100 µg/mL (≈ 139 µM); Tmax [20, 24]: 0.4 h; half-life [20, 24]: 9.1 h |
